SMILES strings stand for the structures.

In BindingDB's records for patent US9334290 (Bristol Myers Squibb, 2016) one finds IC50 data, which are given here for one molecule.

The assay concerns the target Tyrosine-protein kinase JAK2 (Homo sapiens, UniProt O60674). The assay can be described thus: Jak2 Tyrosine Kinase Assay. As to conditions: pH 7.4; 25 °C.

Sequence of Tyrosine-protein kinase JAK2 (O60674 whole entry): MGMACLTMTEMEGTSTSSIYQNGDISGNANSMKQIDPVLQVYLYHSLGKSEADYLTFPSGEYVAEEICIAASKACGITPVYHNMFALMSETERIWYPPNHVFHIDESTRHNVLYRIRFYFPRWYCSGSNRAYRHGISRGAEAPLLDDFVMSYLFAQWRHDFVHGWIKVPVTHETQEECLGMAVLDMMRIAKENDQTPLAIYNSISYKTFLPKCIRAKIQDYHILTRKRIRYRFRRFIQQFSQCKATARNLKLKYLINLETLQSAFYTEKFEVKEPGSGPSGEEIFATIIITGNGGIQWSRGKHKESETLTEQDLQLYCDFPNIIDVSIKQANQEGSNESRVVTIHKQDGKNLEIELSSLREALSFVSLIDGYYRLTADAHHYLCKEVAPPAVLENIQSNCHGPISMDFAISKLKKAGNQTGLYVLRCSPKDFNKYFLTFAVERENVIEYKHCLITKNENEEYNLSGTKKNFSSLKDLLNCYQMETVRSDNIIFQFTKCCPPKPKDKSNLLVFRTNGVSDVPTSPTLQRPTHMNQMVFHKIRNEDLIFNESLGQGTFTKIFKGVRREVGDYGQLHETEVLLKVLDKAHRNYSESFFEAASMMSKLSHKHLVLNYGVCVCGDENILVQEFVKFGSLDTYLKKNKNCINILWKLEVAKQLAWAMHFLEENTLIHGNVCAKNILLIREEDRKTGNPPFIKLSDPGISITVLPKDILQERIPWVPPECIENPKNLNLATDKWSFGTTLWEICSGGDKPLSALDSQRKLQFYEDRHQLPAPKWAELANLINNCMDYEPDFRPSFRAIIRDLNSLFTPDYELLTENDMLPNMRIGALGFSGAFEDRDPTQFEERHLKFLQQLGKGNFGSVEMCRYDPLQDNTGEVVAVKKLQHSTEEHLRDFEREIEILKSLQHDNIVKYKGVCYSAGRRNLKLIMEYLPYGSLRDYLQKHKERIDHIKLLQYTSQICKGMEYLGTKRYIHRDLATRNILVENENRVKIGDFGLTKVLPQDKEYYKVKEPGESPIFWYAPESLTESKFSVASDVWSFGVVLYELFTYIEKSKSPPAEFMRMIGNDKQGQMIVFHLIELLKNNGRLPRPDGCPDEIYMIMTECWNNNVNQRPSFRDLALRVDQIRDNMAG

`Cc1c(-c2c(F)cc(C(N)=O)c3[nH]c4cc(C(C)(C)O)ccc4c23)cccc1-n1c(=O)[nH]c2c(F)cccc2c1=O` [US9334290, 21] gave an IC50 of 760 nM. This lies in the sub-micromolar range.
